Source: article PMC13165411 (Molecules, 2026)
“And” between values parts separate entries of the source, which are not always exact repeats. Equal values may be shown once.

How the values were obtained:
[1] = molecular target: T1, HNE under oxidizing conditions (oxidized HNE) (Homo sapiens, UniProt P08246); assay: HNE inhibition assay under oxidizing conditions (HNE pre-incubated with 44 mM H2O2); assay type: biochemical; conditions: for remaining activity at 100 µM: HNE under oxidizing conditions (44 mM H2O2), maximum inhibitor concentration 100 μM, read-out: Residual Activity at Maximum Inhibitor Concentration (%)
T1 construct: purchased Abcam
T1 sequence (P08246 30-247 limits assumed): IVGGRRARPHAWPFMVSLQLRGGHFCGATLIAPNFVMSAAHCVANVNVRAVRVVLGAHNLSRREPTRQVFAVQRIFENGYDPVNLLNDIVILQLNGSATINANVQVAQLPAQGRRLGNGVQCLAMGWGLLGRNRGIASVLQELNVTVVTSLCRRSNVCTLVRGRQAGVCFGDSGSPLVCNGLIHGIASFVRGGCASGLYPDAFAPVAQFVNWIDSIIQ
Protocol: HNE activity under oxidative conditions was determined using the colorimetric assay described above. Briefly, HNE was pre-incubated with 1 μL of 30% (w/v) H2O2 (final concentration 44 mM in a total reaction volume of 200 μL) for 60 min at 37 °C. The oxidative conditions used in this study were designed to promote cumulative oxidative modifications of HNE rather than to reproduce physiological ROS concentrations, allowing simulation of oxidative stress in chronically inflamed tissues where repeated ROS exposure leads to progressive protein oxidation. The kinetic parameters of oxidized HNE were determined as described above. Subsequently, inhibition assays were performed by initiating the reaction with substrate (final concentration 0.15 mM) in the presence of increasing concentrations of inhibitor (0.1–100 μM). The reaction mixtures were then incubated at 37 °C for 45 min and then terminated by the addition of 20 μL of 0.45 M TCA. Samples were cooled on ice, centrifuged, and analyzed as described in Section 2.4.
Residual enzymatic activity (%) was calculated relative to HNE activity in the absence of inhibitors, set as 100%. The lowest observed activity under the experimental conditions was taken as the maximal inhibition achieved within this assay range.

[2] = molecular target: T2, Human neutrophil elastase (HNE) (Homo sapiens, UniProt P08246); assay: HNE colorimetric inhibition and steady-state kinetics assay (MeOSuc-Ala-Ala-Pro-Val-pNA), native conditions; assay type: biochemical; conditions: inhibitor 0.1-100 μM; for Mode of inhibition (Lineweaver-Burk plots): steady-state kinetics
T2 construct: purchased Abcam
T2 sequence (P08246 30-267): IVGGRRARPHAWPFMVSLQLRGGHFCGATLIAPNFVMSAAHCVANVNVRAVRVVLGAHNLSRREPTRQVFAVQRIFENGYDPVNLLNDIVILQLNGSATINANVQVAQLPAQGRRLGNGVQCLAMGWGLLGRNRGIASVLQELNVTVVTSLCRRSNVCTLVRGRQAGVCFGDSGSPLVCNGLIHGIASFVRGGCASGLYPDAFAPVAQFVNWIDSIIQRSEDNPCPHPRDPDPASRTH
Protocol: HNE activity was assessed through a colorimetric assay based on the hydrolysis of the synthetic peptide substrate MeOSuc-Ala-Ala-Pro-Val-pNA [37]. To determine the steady-state kinetic parameters, 0.4 μg of HNE (corresponding to a final concentration of approximately 0.05 μM) were added to an incubation buffer consisting of 50 mM Tris-HCl, pH 7.8 containing 500 mM NaCl. The reaction was initiated by adding a fixed volume (20 µL) of intermediate substrate working solutions to the enzyme–buffer mixture, reaching a final reaction volume of 200 µL. These working solutions were prepared by diluting a 20 mM substrate stock solution in DMSO with incubation buffer, ensuring that the final DMSO concentration remained constant at 1% (v/v) across all tested substrate concentrations (ranging from 0.075 to 2.4 mM). This approach was applied to all samples, including blanks, to maintain a uniform solvent environment. The mixtures were incubated at 37 °C for 45 min. […] The reaction was then quenched with 20 μL of 0.45 M trichloroacetic acid (TCA). After cooling on ice for 30 min, the samples were centrifuged at 11,500 rpm for 10 min to remove precipitated proteins. The concentration of p-nitroaniline (p-NA) released into the supernatant was determined by measuring the absorbance at 410 nm. All assays were performed in triplicate, and the kinetic parameters were determined by fitting the experimental data to the Michaelis–Menten equation using GraphPad Prism 8.0 software (GraphPad Software, San Diego, CA, USA).
Stock solutions of both inhibitors were prepared in DMSO and diluted with incubation buffer to obtain intermediate working solutions. A fixed volume of these working solutions was added to each reaction mixture so that the final DMSO concentration remained constant at 1% (v/v) across all inhibitor concentrations. […]
Subsequently, the inhibition constants (Ki) were determined independently from IC50 values by performing steady-state kinetic assays at varying concentrations of both substrate and inhibitors. […]

[3] = Cytotoxicity on A549 cell monolayers (resazurin reduction assay); assay type: cell-based; conditions: human, A549 cells (confluent monolayer), 0.1 to 1000 µM, 16 h exposure, read-out: Cell viability (% of untreated control)
Protocol: Cells were obtained from the American Type Culture Collection (ATCC, Manassas, VA, USA) and cultured according to the supplier’s instructions. Cells were maintained in DMEM supplemented with 10% fetal bovine serum (FBS) and seeded into sterile 96-well plates at a density of 1 × 10^5 cells per well, allowing for the formation of a confluent monolayer prior to treatment. After 24 h incubation at 37 °C (5% CO2), the culture medium was replaced with 200 μL of fresh medium containing ten-fold dilutions of the test compounds, ranging from 0.1 to 1000 µM.
After a 16 h exposure period, cell viability was assessed via the resazurin reduction assay. Briefly, 30 μL of a 0.01% resazurin solution (Sigma-Aldrich, St. Louis, MO, USA) was added to each well and incubated for 4 h at 37 °C. The reduction of resazurin to resorufin by metabolically active cells was quantified using a ClarioSTAR microplate reader (BMG Labtech, Ortenberg, Germany), with excitation and emission wavelengths set at 520 nm and 580 nm, respectively. All experiments were performed in triplicate, and cell viability was expressed as a percentage relative to untreated control wells.

[4] = Inhibitor stability under oxidative conditions by direct-infusion ESI-MS; assay type: physicochemical; conditions: 100 μM compound, 44 mM H2O2, 30 min, 37 °C, no HNE
Protocol: Mass spectrometry analysis was performed using an Advion Interchim Scientific expression® Compact Mass Spectrometer (CMS) (Advion Interchim Scientific, Ithaca, NY, USA) equipped with an ESI source. Stock solutions of each inhibitor were prepared in DMSO and diluted in an assay buffer to a final concentration of 100 μM (DMSO ≤ 1% v/v). Aliquots were incubated in the presence or absence of H2O2 (44 mM final concentration) for 30 min at 37 °C, matching the oxidative treatment used in the enzymatic assays. After incubation, samples were diluted 1:1 (v/v) with water containing 0.1% formic acid and directly analyzed in both positive- and negative-ion mode. Mass spectra were analyzed with Mass Express software version 5.1.

## Cc1c(-c2ccnn2C)cc(C(=O)NCc2ccc(S(C)(=O)=O)cn2)c(=O)n1-c1cccc(C(F)(F)F)c1 [Alvelestat]
[1]; HNE pre-incubated with 44 mM H2O2, 60 min, 37 °C, substrate 0.15 mM
  IC50: 4 ± 0.41 µM
[1]
  remaining activity at 100 µM: < 20%
[2]
  Mode of inhibition (Lineweaver-Burk plots): competitive inhibition
[2]; substrate 0.15 mM, 37 °C, 45 min, read-out: IC50 against HNE activity
  IC50: 2.8 µM and 2.84 µM
[3]
  viability at 16 h: ~100%
[4]
  Chemical stability under oxidizing conditions (ESI-MS spectra vs untreated control): no additional peaks

## CC(C)(C)C(=O)Oc1ccc(S(=O)(=O)Nc2ccccc2C(=O)NCC(=O)O)cc1 [Sivelestat]
[1]; 100 μM inhibitor, HNE pre-treated with 44 mM H2O2
  Inhibition of oxidized HNE at the highest tested concentration: failed to achieve significant inhibition
[1]
  remaining activity at 100 µM: > 80%
[2]
  Mode of inhibition (Lineweaver-Burk plots): competitive inhibition
[3]
  viability at 16 h: ~100%
[4]
  Chemical stability under oxidizing conditions (ESI-MS spectra vs untreated control): no additional peaks
